Where a SMILES comes first, the peptide text is derived from it. Bridges are numbered along the chain shown (N, C = ends). [ ]: non-standard residue; d: D form. The star is where a group is joined. Ileψ(thiazoline)Cys = CC[C@H](C)[C@H](N)C1=N[C@H](C(=O)*)CS1; dOrn = NCCC[C@@H](N)C(=O)O
Tests used:
[1] = tested on: bone marrow-derived mast cells (BMMCs); test: cytokine production from IgE/antigen-activated bone marrow-derived mast cells (ELISA); assay type: cell-based, BALB/c mice; conditions: for activation of mast cells: DNP-IgE priming, DNP-BSA challenge; for production of mast cell cytokines such as TNF-a, IL-6, and IL-13: DNP-IgE/DNP-BSA
Method: In this study, bone marrow-derived mast cells (BMMCs) were treated with the known PDI inhibitors bacitracin and rutin, and mast cell activation was assessed. BMMCs were generated from BALB/c mice and grown in 10 ng/ml IL-3 and 10 ng/ml stem cell factor (SCF) for 4-8 weeks. One million BMMCs in triplicates were cultured with various concentrations of the PDI inhibitors Bacitracin (Bac) and Rutin (RH) for 1 day or 7 days. Some cells were activated by priming cells with DNP-IgE (Dinitrophenyl IgE) antibodies and challenging with DNP-BSA (dinitrophenyl-bovine serum albumin). Cytokine levels (IL-4, IL-13, TNF-alpha, and IL-6 in FIGS. 1A-1D, respectively) were assessed in the supernatants 24 hr later by ELISA. FIG. 1A-1D show treatment of mast cells with PDI inhibitor Bacitracin or Rutin inhibits the activation of mast cells and the production of mast cell cytokines such as TNF-a, IL-6, and IL-13. In this study, BMMCs were treated with the known PDI inhibitor PACMA-31, and mast cell activation was assessed. Bone marrow derived mast cells (BMMCs) were generated from BALB/c mice and grown in 10 ng/ml IL-3 and 10 ng/ml SCF for 4-8 weeks. 1 million BMMCs in triplicates were cultured with 30 μM PACMA-31 (Sigma-Aldrich) for 30 minutes. Some cells were activated by priming cells with DNP-IgE antibodies and challenging with DNP-BSA. Cytokine levels (IL-13, TNF-alpha, and IL-6 in FIGS. 2A-2C) were assessed in the supernatants 6 hrs later by ELISA. FIG. 2A-2C show treatment of mast cells with the specific PDI inhibitor PACMA-31 inhibits the activation of mast cells and the production of mast cell cytokines such as TNF-a, IL-6, and IL-13.

[2] = known property; cited from earlier work
[3] = tested on: ovalbumin-induced food allergy; test: mouse model of ovalbumin-induced, mast cell-mediated food allergy; assay type: in vivo, BALB/c mice
Method: In this study, wild-type (Wt) mice were sensitized and challenged with ovalbumin and treated with PACMA-31 to determine whether PDI inhibition can modulate the development of food allergy. BALB/c mice were sensitized intraperitoneally (i.p.) with 50 μg ovalbumin (OVA) and 1 mg alum on day zero (d0) and d14. On day 28, some groups of mice were challenged intragastrically with 50 mg OVA once a day on 6 alternating days. Some groups of mice were treated with 300 μg PACMA-31 (P-31) intragastrically daily starting d27. […] The development of allergic diarrhea in this model is dependent on mast cell activation. […] In FIGS. 3A-3F, Wt Cont=wild-type, Control; Wt OVA=wild-type, ovalbumin; Wt+P31 Cont=wild-type, PACMA-31, Control; and Wt+P31 OVA=wild-type, PACMA-31, ovalbumin. FIG. 3A-3F show oral treatment of mice undergoing food allergy with PACMA-31 results in attenuation of the allergic response including mast cell protease levels which indicate mast cell activation (mMCP-1), OVA-IgE levels, and Th2 cytokine levels.

[4] = wild-type mice, ovalbumin-induced food allergy

Row | SMILES | activation of mast cells ([1]; BMMCs cultured with various concentrations for 1 day or 7 days, FIGS. 1A-1D) | production of mast cell cytokines such as TNF-a, IL-6, and IL-13 ([1]; BMMCs cultured with various concentrations for 1 day or 7 days, supernatants 24 hr later by ELISA, FIGS. 1A-1D) | oral bioavailability [2] | mast cell protease levels which indicate mast cell activation (serum mMCP-1) ([3]; 300 μg intragastrically daily from d27, OVA-sensitized and challenged mice, FIG. 3A) | serum OVA-IgE levels ([3]; 300 μg intragastrically daily from d27, OVA-sensitized and challenged mice, FIG. 3B) | Th2 cytokine levels in supernatants of spleen cells restimulated with OVA ([3]; 300 μg intragastrically daily from d27, OVA-sensitized and challenged mice, FIGS. 3C-3F) | allergen-specific IgE [3, 4] | development of food allergy symptoms [3, 4] | mast cell activation [3, 4] | allergic diarrhea ([3]; wild-type mice, ovalbumin-induced food allergy, observed one hour after 6th challenge) | activation of mast cells ([1]; BMMCs cultured with 30 μM for 30 minutes, FIGS. 2A-2C) | production of mast cell cytokines such as TNF-a, IL-6, and IL-13 ([1]; BMMCs cultured with 30 μM for 30 minutes, supernatants 6 hrs later by ELISA, FIGS. 2A-2C)
1 | CC[C@H](C)[C@H](N)C1=N[C@H](C(=O)N[C@@H](CC(C)C)C(=O)N[C@H](CCC(=O)O)C(=O)N[C@H](C(=O)N[C@H]2CCCCNC(=O)[C@H](CC(N)=O)NC(=O)[C@@H](CC(=O)O)NC(=O)[C@H](Cc3cnc[nH]3)NC(=O)[C@@H](Cc3ccccc3)NC(=O)[C@H]([C@@H](C)CC)NC(=O)[C@@H](CCCN)NC2=O)[C@@H](C)CC)CS1 [Bacitracin, bacitracin] ({Ileψ(thiazoline)Cys}-L[dE]IK[dOrn]I[dF]H[dD]N; lactam 4-C) | inhibits | inhibits | – | – | – | – | – | – | – | – | – | –
2 | C#CC(=O)N(c1ccc(OC)cc1OC)C(C(=O)NCC(=O)OCC)c1cccs1 (stereo not drawn) [PACMA-31, N-(2,4-dimethoxyphenyl)-N-(1-oxo-2-propyn-1-yl)-2-(2-thienyl)glycylglycine ethyl ester] | – | – | orally bioavailable | attenuation | attenuation | attenuation | decreases | significant attenuation | decreases | decreases | inhibits | inhibits
